Experimental data published in patent US20160220552A1, “FORMULATIONS FOR CGRP RECEPTOR ANTAGONISTS” (MERCK SHARP & DOHME CORP., priority 2013, published 2016).

Assays:
[1] = clinical trials; cited from earlier work
[2] = control group; cited from earlier work
[3] = Permeability of Compound I; assay type: in vitro ADME; conditions: not told
[4] = BCS classification / solubility of Compound I; assay type: physicochemical

Row | Structure (SMILES) | effectiveness in treating migraine [1] | prevention of headache induced by CGRP infusion [2] | Papp [3] [×10⁻⁶ cm/s] | BCS Class [4] | solubility [4]
1 | NCCCC[C@H](NC(=O)[C@@H](Cc1cc(Br)c(O)c(Br)c1)NC(=O)N1CCC(N2Cc3ccccc3NC2=O)CC1)C(=O)N1CCN(c2ccncc2)CC1 [BIBN4096BS] | effective in treating acute attacks of migraine | able to prevent headache induced by CGRP infusion | – | – | –
2 | C[C@@H]1[C@H](c2ccccc2)C[C@H](NC(=O)c2cnc3c(c2)C[C@@]2(C3)C(=O)Nc3ncccc32)C(=O)N1CC(F)(F)F [Compound I, (S)—N-((3S,5S,6R)-6-methyl-2-oxo-5-phenyl-1-(2,2,2-trifluoroethyl)piperidine-3-yl)-2′-oxo-1′,2′,5,7-tetrahydrospiro[cyclopenta[b]pyridine-6,3′-pyrrolo[2,3-b]pyridine]-3-carboxamide trihydrate] | – | – | 16.6 | BCS Class 4 | low solubility
3 | O=C(N[C@@H]1CC[C@@H](c2cccc(F)c2F)CN(CC(F)(F)F)C1=O)N1CCC(n2c(=O)[nH]c3ncccc32)CC1 [telcagepant] | shown antimigraine effectiveness | – | – | – | –
